{"source": "patent US6521623B1", "about": "“N,N'-disubstituted benzimidazolone derivatives with affinity at the serotonin and dopamine receptors” (Boehringer Ingelheim Pharma KG, priority 2000, dated 2003)", "key": {"5-HT2A [1]": {"target": "T1, 5-HT2A (Rattus norvegicus, UniProt P14842)", "T1 construct": "Cerebral frontal cortex was homogenized in 10 volumes of ice cold 0.32 M sucrose; from tissue; host or cells: rat cerebral frontal cortex membranes", "T1 sequence (P14842 whole entry)": "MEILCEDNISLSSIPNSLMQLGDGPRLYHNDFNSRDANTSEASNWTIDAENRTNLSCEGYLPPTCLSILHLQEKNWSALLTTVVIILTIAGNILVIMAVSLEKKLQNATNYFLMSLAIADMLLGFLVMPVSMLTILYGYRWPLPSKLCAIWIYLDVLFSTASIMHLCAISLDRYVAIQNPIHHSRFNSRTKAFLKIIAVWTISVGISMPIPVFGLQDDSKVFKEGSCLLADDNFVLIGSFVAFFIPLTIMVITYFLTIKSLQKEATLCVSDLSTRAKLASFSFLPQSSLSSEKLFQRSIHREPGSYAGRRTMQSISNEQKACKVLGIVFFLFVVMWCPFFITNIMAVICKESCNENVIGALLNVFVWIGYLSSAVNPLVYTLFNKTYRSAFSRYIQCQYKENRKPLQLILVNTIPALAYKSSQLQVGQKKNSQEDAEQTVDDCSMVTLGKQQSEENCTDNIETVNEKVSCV", "test": "5-HT2A Radioligand Receptor Binding Assay ([3H]-Ketanserin, cerebral frontal cortex membranes)", "settings": "0.5 nM [3H]-Ketanserin", "experimental": "5-HT2A Radioligand Receptor Binding Assay\nRats (male Sprague-Dawley, 200-250 g) were used. Cerebral frontal cortex was homogenized in 10 volumes of ice cold 0.32 M sucrose in 5 mM Tris-HCl ([…]) buffer. After centrifugation of the homogenate (1,000×g for 10 minutes) the supernatant was then recentrifuged at 48,000×g for 15 minutes. The resulting pellet was gently homogenized in an equal volume of 50 mM Tris-HCl buffer (pH 7.4) and incubated at 37° C. for 10 minutes. Membranes were then collected by centrifugation as above described and finally resuspended in 10 volumes of 50 mM Tris-HCl buffer (pH 7.4).\nFor displacement experiments membranes (980 μl) were diluted in 50 mM Tris-HCl buffer (pH 7.4) to a final concentration of 1:100 (w/v); the tissue suspension was then incubated at 37° C. for 10 minutes in a final volume of 1 ml in the presence of 0.5 nM [^3H]-Ketanserin. Non-specific binding was determined by incubating similar samples with unlabelled methysergide (100 μM). After incubation, samples prepared in a 24 wells cell culture cluster (Costar) were rapidly filtered by Inotech Cell Harvester (IH 201 filters). The filters were washed three times with 2 ml ice-cold Tris-HCl buffer and placed in polyethylene vials, then 4 ml of Filter Count scintillation cocktail (Packard) were added. The radioactivity present was counted by liquid scintillation spectrometry.\nThe affinity values (IC50) for the compounds were obtained by a nonlinear least squares regression analysis on the basis of a one binding site model."}, "5-HT2A [2]": {"target": "5-HT2A (Mus musculus, UniProt P35363)", "sequence (P35363 whole entry, looked up)": "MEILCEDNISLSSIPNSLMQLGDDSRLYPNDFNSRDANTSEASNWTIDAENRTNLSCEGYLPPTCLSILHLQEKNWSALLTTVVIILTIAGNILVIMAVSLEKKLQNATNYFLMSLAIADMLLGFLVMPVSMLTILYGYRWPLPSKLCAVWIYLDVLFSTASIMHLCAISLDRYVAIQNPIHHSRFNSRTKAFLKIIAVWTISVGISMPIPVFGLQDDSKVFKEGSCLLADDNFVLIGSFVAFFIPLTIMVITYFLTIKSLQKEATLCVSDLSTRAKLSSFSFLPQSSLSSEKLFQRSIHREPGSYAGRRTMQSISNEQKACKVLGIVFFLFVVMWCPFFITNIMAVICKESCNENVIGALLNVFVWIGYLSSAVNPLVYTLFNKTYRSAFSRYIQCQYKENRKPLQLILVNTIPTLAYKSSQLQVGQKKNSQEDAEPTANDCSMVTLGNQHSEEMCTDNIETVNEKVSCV", "test": "5-HT2 Functional Assay (PI Turnover) in cerebral cortex miniprisms", "type": "biochemical", "settings": "10 μM compound, inhibition of PI turnover accumulation induced by 100 μM 5-HT", "experimental": "5-H T2 Functional Assay (PI Turnover)\nCross-chopped miniprisms (350×350 μm) were prepared from mouse whole cerebral cortices and incubated for 60 minutes at 37° C. in Krebs-Henseleit buffer containing 2 g/l glucose.\nCerebral cortex miniprisms were distributed in vials and incubated for 30 minutes with approximately 170 nM [^3H]-myoinositol (10-20 Ci/mmol) and […] lithium chloride. Samples were divided in different groups in triplicate: control, 100 μM 5-HT, 10 and 30 μM flibanserin+100 μM 5-HT, as standards, and 10 μM of the different compound under investigation+100 μM 5-HT. When 5-HT was added the incubation continued for 45 minutes. Compounds under investigation and flibanserin were added 10 minutes before dispensing 5-HT. Incubation was terminated by the addition of 940 μl chloroform-methanol (1:2 v/v). Further aliquots of chloroform (310 μl) and water (310 μl) were added and labeled inositol phosphates (1 Ps) were extracted from the aqueous phase by ion exchange chromatography using Dowex resin in the formate form. After addition of 10 ml of PicoFluor 40 scintillation cocktail (Packard), the radioactivity present in an aliquot (400 μl) of the aqueous extract was counted by liquid scintillation spectrometry."}}}
{"smiles": "CCNC(=O)OCCn1c(=O)n(CCN2CCN(c3cccc(C)c3C)CC2)c2ccccc21", "note": "[Compound 215]", "values": [{"measurement": "IC50", "setting": "5-HT2A [1]", "value": 3.2, "unit": "nM"}, {"measurement": "5-HT2A PI Turnover % inhibition", "setting": "5-HT2A [2]", "value": 83, "unit": "%"}]}
